Values joined by “and” are separate entries in the source; they are usually repeats but may differ in a detail not shown here. Identical values can stand only once.
How the values were obtained:
[1] = test system: bladder cancer cell line RT112; assay: Apoptosis: cytoplasmic histone-associated DNA fragments, photometric enzyme immunoassay (FIG. 1); format: cell-based, human
Method: FIG. 1: FIG. 1 is a representation of apoptosis measurements with a bladder cancer cell line RT112. […] Besides the control measurements without Diflunisal, there is also a “positive” control (CAM) registered with a defined calibrated system. Apoptosis was measured by determination of cytoplasmic histone-associated DNA fragments (mono- and oligonucleosomes) after induced cell death. The qualitative and quantitative in vitro determination of apoptosis in RT112 tumor cells was analyzed with a photometric enzyme immunoassay. In brief, RT112 cells were harvested, washed twice and resuspended in culture media to yield a density of 2.5×10^5/ml. 100 μl/well of the RT112 cell suspension were seeded into 96 well microtiter plates (obtainable from BECTON DICKINSON) and incubated overnight at 37° C. and 5% CO2. The supernatant was replaced by 90 μl pH-adjusted culture medium alone (control). Again, the cells were incubated for various time periods at 37° C. and 5% CO2. Supernatants of the cell cultures were discarded and RT112 cells were lysed in lysis buffer for 30 minutes at RT (25° C.). The cytoplasmic fractions were transferred into a streptavidin-coated microtiter plate, and the working procedure for the ELISA was performed according to the manufacturer's instructions (the ELISA test was obtained from BOEHRINGER […], Germany). […] But there is also a superimposed part of the third level.

leukemia cell line K-562 = assay: Pore formation: PI-stained dead cells by flow cytometry (FIG. 2); format: cell-based, human
Method: FIG. 2: FIG. 2 is a representation of pore formation under conditions of interstitial albumin concentration of 0.2 mM. […] The dead cell fraction compared to the total cell number is measured in a flow cytometer. The experiments were conducted with the leukemia cell line K-562. […] Of minor interest is the second pore formation process starting at pH 6.4, because this process functions beyond the acidity milieu of most tumors. […] Pore formation was measured by determination of the necrotic cells measured by flow cytometry. Cultures of the leukemia cell line K-562 were harvested, and 5×10^5 cells were added into 6 ml tubes (BD). After centrifugation (250×g; 5 min; room temperature (25° C.)) the cells were resuspended in 900 μl pH-adjusted culture medium (pH 6.0-7.4; RPMI 1640 without NaHCO3; available from SIGMA). Then test substances were added to the samples and cells were incubated in a final volume of 1 ml at 37° C. in a water bath. After the incubation period the pH of the samples was measured, and the cells were washed and resuspended in 300 μl FACS medium (PBS+2% FCS and 0.1% NaN3). Cells were stained with propidium iodide (PI; available form SIGMA; 25 μl/25 μg/tube) for 15 minutes at RT (25° C.). Subsequently analysis of the stained cells was performed on an EPICS XL-MCL flow cytometer (available from COULTER, Krefeld, Germany), equipped with a 15 mW argon laser at an excitation wavelength of 488 nm. PI fluorescence was measured in the red channel (FL3; 620 nm longpass filter). Data acquisition and analysis was performed using XL-System II software (available from the company COULTER). It can be seen that Diflunisal causes pH-dependent pore formation in cancer cells.

[2] = test system: bladder cancer cell line RT112; assay: Lactate transport: enzymatic determination of lactate in supernatants (FIG. 3); format: cell-based, human
Method: There is plotted a control measurement which indicates lactate efflux in dependence of pH and without any Diflunisal influence. […] The lactate transport was measured by qualitative enzymatic determination of lactate in supernatants of RT112 cells at 340 nm. RT112 cells were harvested, washed twice and resuspended in culture media to yield a density of 2×10^5/ml. 500 μl/well of the RT112 cell suspension were seeded into 24 well microtiter plates (BD) and incubated overnight at 37° C. and 5% CO2. The supernatant was replaced by 450 μl pH-adjusted culture medium (pH 6.0-7.4) and 50 μl of the solution of preferred substances or 500 μl/well pH-adjusted culture medium alone (control). Again, the cells were incubated for 24 h at 37° C. and 5% CO2. The measurement of lactate in the supernatants at 340 nm (PERKIN-ELMER, Lambda 17. UV-VIS Spectrophotometer, Überlingen, Germany) was performed according to the manufacturer's instructions (SIGMA DIAGNOSTICS, Deisenhofen, Germany; Lactate: Quantitative, Enzymatic Determination of Lactate in Whole Blood at 340 nm (Procedure No. 826-UV)).

RT112 cells = assay: Respiration: mitochondrial activity, XTT assay (FIG. 4); format: cell-based, human
Method: This behavior reflects the apoptosis induction from the second affinity level of albumin. Increasing the concentrations higher than 1.0 mM also the whole respiration activity within the pH range 7.0-7.4 is diminished and falls to 0 at 1.5 mM. The same is true with concentrations up to 2.0 mM. This effect is introduced by apoptosis at pH 7.0-7.4, accelerated by the third and fourth affinity level of albumin. […] The mitochondrial activity of RT112 was determined using a colorimetric assay (XTT assay). […] The mitochondrial succinate-tetrazolium reductase system cleaves the tetrazolium salt XTT to formazan. The amount of this dye is directly correlated to the number of metabolically active cells, as the enzyme system is only active in respirating and viable cells. For this purpose, RT112 cells were harvested, washed twice and resuspended in culture media to yield a density of 2.5×10^5/ml. 100 μl/well of the RT112 cell suspension were seeded into 96 well microtiter plates (BECTON DICKINSON (BD), Heidelberg, Germany) and incubated overnight at 37° C. and 5% CO2. The supernatant was replaced by 90 μl pH-adjusted culture medium (pH 6.0-7.4) and 10 μl of preferred substances or 100 μl/well pH-adjusted culture medium alone (control). The cells were incubated for various time periods at 37° C. and 5% CO2. Thereafter, cells were washed twice and reincubated in fresh pH-adjusted culture medium. After the incubation period, pH of each well was determined with highly sensitive microelectrodes before 50 μl XTT labeling mixture was added. The cells were further incubated for additional 4 h at 37° C. and 5% CO2. The spectrophotometric absorbance of the samples was measured using a microtiter plate (ELISA) reader ([…], Denkendorf, Germany) at a wavelength of […] (630 nm as reference). Data acquisition and analysis was performed using BioLinx 2.1 software ([…]).

[3] = Resorption of orally administered Diflunisal: concentration in blood / interstitial milieu; format: in vivo
[4] = test system: colon and colorectal cancer; settings: cited from earlier work
[5] = 1.0 mM Diflunisal, 0.06 mM albumin, third affinity level
[6] = 3 Diflunisal molecules bound to albumin, 0.17 mM albumin
[7] = 1.0 mM Diflunisal, 0.2 mM albumin
[8] = ratio 6:1 Diflunisal to albumin

Structure (SMILES): O=C(O)c1cc(-c2ccc(F)cc2F)ccc1O [Diflunisal, 5-(2,4-difluorophenyl)salicylic acid]
- pH at which apoptosis ends [1, 5]: 7.4 pH
- pH at which apoptosis starts [1, 5]: 7.0 pH
- pH range in which apoptosis occurs ([1]; 4 to 6 Diflunisal bound to albumin): 6.0-7.2 pH
- pH range in which apoptosis is achieved ([1]; Diflunisal/albumin ratio 7-9, 0.17 mM albumin): 7.0-7.4 pH
- starting pH of the second pore formation process (leukemia cell line K-562; 0.2 mM albumin): 6.4 pH
- pH of pore formation, third affinity level of albumin (leukemia cell line K-562; 1.25 mM to 1.5 mM Diflunisal, 0.2 mM albumin): ≤ 7.0 pH
- pH at which pore formation happens (leukemia cell line K-562; [6]): < 6.5 pH
- interstitial concentration from which pore formation starts in a therapy-relevant pH range (leukemia cell line K-562; FIG. 2, 0.2 mM albumin): ≥ 1.25 mM
- pH at which pore formation can be produced (leukemia cell line K-562; cancer cell suspensions, flow cytometer): < 7.0 pH
- starting pH of a third transport system (fourth affinity level of albumin) (leukemia cell line K-562; not shown in FIG. 2): 7.2-7.3 pH
- interstitial Diflunisal concentration at which pore formation starts (leukemia cell line K-562; pH<7.0): about 0.7 mM
- pH range of lactate antiport [2, 6]: 6.6-7.4 pH
- pH range in which lactate efflux is remarkably enhanced ([2]; FIG. 3, against control without Diflunisal): 6.0 to 7.2 pH
- Diflunisal/lactate antiport ([2]; three Diflunisal bound to albumin, first affinity stage): no antiport happens
- pH at which deviation from normal respiration activity reaches its maximum (RT112 cells; [7]): ~6.9 pH
- pH at which inhibition of respiration activity starts (RT112 cells; [7]): ~7.2 pH
- respiration activity within pH range 7.0-7.4 (RT112 cells; 1.5 mM Diflunisal (same up to 2.0 mM), 0.2 mM albumin): 0
- pH range of the new respiration blockade effect (RT112 cells; 7 to 9 Diflunisal to albumin): 7.0-7.4 pH
- blockade of the respiration chain (RT112 cells; ratio 4:1 Diflunisal to albumin): significant increase in activity
- pH range in which the blockade effect declines to ineffectiveness (RT112 cells; [8]): 6.9 to 7.2 pH
- pH up to which the respiration blockade reaches an optimum (RT112 cells; [8]): ≤ 6.9 pH
- blockade of the respiration chain (RT112 cells; three bound Diflunisal molecules per albumin): no substantial blockade
- concentration in blood ([3]; 100 mg/kg administered orally): ≤ 1000 µM
- dose at which the saturation concentration is reached ([3]; oral administration): 50 mg/kg
- saturation concentration in blood ([3]; oral administration): 250 µg/mL
- saturation concentration (resorption saturation) ([3]; oral administration, converted from 250 μg/ml): 1.00 mM and 1.0 mM
- interstitial concentration ([3]; patient treatments, 1000 mg/day, Diflunisal to albumin ratio <2:1): < 0.3 mM
- active concentration of Diflunisal ([4]; Life Science 70, 2001, 37-48): suprapharmacological and intrinsically cytotoxic
- cancer cell kill ([4]; patient treatments, 1000 mg/day): no cancer cell kill takes place
